From patent publication US10314843B2, “Combinations for the treatment of neoplasms using quiescent cell targeting and inhibitors of mitosis” (Felicitex Therapeutics, Inc., priority 2016, dated 2019)

Experiments:
[1] = system: SW620 cells; test: FACS cell cycle distribution (Acridine Orange), SW620 cells; assay type: cell-based; details: combination of Compound I-7 (4 μM) with paclitaxel (2 nM), FBS+ media, 24 hours
Source text: (§1) The following cell lines were obtained from ATCC and cultured according to the ATCC recommendations: DMS273—small cell lung cancer cell line; H1975—non-small cell lung cancer cell line harboring L858R and T790M mutations in EGFR TK; A549—a non-small cell lung cancer cell line with wild type EGFR; LNCap—prostate cancer cell line; SW620—colon cancer cell line; MiaPaCa2—pancreatic cancer cell line; PANC1—pancreatic cancer cell line; OVCAR3—ovarian cancer cell line; SK-OV-3—ovarian cancer cell line.
(§2) Cell cultures were seeded into 6-well plates at 3×10^5-6×10^5 cells/well; the plated number of cells depended on cell size and rate of proliferation, aiming for approximately 50% confluency. After seeding, the cells were allowed to attach for 24 hours while incubated at 37° C. in a humidified 5% CO2 atmosphere, and then treated with compounds for desired amount of time (usually 24 hours) incubating under same conditions. Then the cells were harvested by trypsinization, pooled with the floating cells, washed in PBS, and fixed in 70% ice-cold ethanol overnight. For Acridine Orange (AO) staining, fixed cells were washed once with ice-cold PBS, re-suspended in 100 μL PBS, followed by addition of 200 μL of permeabilizing solution and 600 μL AO staining solution. The measurements were performed with Guava easyCyte HT flow cytometer (EMD Millipore) using the blue laser for excitation at 488 nm, monitoring emission of the AO-DNA complex at 526 nm and AO-RNA complex at 650 nm. The complete protocol and composition of buffers are described in the literature (Darzynkiewicz Z, Juan G, and Srour E F (2004) Differential Staining of DNA and RNA (2004). Current Protocols in Cytometry, Chapter 7:Unit 7.3).

[2] = system: SW620 cells; test: FACS cell cycle distribution by DNA content (propidium iodide), SW620 cells in FBS- media; assay type: cell-based; details: 24 hours in FBS- media, AZ191 2.5, 5, 10 μM, Compound I-7 1.25, 2.5, 5 μM
Protocol: as §2, with “[…] […]” for “For Acridine Orange (AO) staining, fixed cells were washed once with ice-cold PBS, re-suspended in 100 μL PBS, followed by addition of 200 μL of permeabilizing solution and 600 μL AO staining solution. The measurements were performed with Guava easyCyte HT flow cytometer (EMD Millipore) using the blue laser for excitation at 488 nm, monitoring emission of the AO-DNA complex at 526 nm and AO-RNA complex at 650 nm.”
The SW620 cells were cultured and treated as described in Example 1. For propidium iodide (PI) staining, manufacturer's protocol supplied with the Guava Cell Cycle Reagent for Flow Cytometry (EMD Millipore) was followed. The measurements were performed with Guava PCA-96 flow cytometer (EMD Millipore) using the green laser for excitation at 535 nm and monitoring emission at 617 nm.
The SW620 cells were cultured, treated, and analyzed as described in Examples 1. […]

[3] = system: DMS273 cells; test: FACS cell cycle distribution (Acridine Orange), DMS273 cells; assay type: cell-based; details: FBS+ media, 24 hours
Source text: as §1, §2

[4] = system: quiescent cancer cells; details: in vitro; reported by Ewton et al. 2011; cited from earlier work
[5] = combination of Compound I-7 (4 μM) with vincristine (1.1 nM)
[6] = combination of Compound I-7 (4 μM) with vinorelbine (8.1 nM)
[7] = combination of Compound I-7 with paclitaxel

Compound: CCOC(=N)c1nc2ccc3ncnc(Nc4cc(F)c(F)cc4Cl)c3c2s1 [Compound I-7]
- cytotoxicity (fraction of apoptotic cells, sub-G0 population) [1]: significantly higher than that of paclitaxel alone
- fraction of cells in G0 [1]: significant reduction of the fraction of cells in G0
- fraction of cells in quiescent state (G0), based on fraction of cells in G0+G1 phase [2]: significant decrease in fraction of cells in quiescent state (G0)
- cytotoxicity (fraction of apoptotic cells, sub-G0 population) [3, 5]: significantly higher than that of vincristine alone
- fraction of cells in G0 [3, 5]: significant reduction of the fraction of cells in G0
- cytotoxicity (fraction of apoptotic cells, sub-G0 population) [3, 6]: significantly higher than that of vinorelbine alone
- fraction of cells in G0 [3, 6]: significant reduction of the fraction of cells in G0
- cytotoxicity (fraction of apoptotic cells, sub-G0 population) [3, 7]: significantly higher than that of paclitaxel alone
- fraction of cells in G0 [3, 7]: significant reduction of the fraction of cells in G0

Compound: COc1ncc2cc(C(=O)Nc3cc(C(=O)NCc4cccc(Cl)c4)ccc3Cl)c(=O)[nH]c2n1 [TC-S 7004]
- effectiveness against quiescent cancer cells [4]: effective against quiescent cancer cells in vitro
